Test system: OVCAR-8
Assay: NCI60 screening, Ovarian Cancer, OVCAR-8
Type: cell-based, human

Cc1ccc2c(c1)c(CO)cn2S(=O)(=O)c1ccc(Cl)c([N+](=O)[O-])c1 [OSU-A9M, [1-(4-chloro-3-nitro-benzenesulfonyl)-5-methyl-1H-indol-3-yl]-methanol]
TGI: 3.95E−6 | GI50 (Homo sapiens): 1.93 µM | CC50 (Homo sapiens, read-out: LC50 (the source's name)): 8.09 µM | Percent Growth (Log10 Concentration −4.0): −84% | Percent Growth (Log10 Concentration −5.0): −65% | Percent Growth (Log10 Concentration −6.0): 96% | Percent Growth (Log10 Concentration −7.0): 101% | Percent Growth (Log10 Concentration −8.0): 97%
